The target in test [1] is T1, glutathione S-transferase (GST)-fused full-length human Syk protein (Homo sapiens, UniProt P43405).
T1 construct: (GST)-fused full-length human Syk protein; GST (glutathione S-transferase); purchased Carna Biosciences
Description: Syk enzyme assay. It counts as biochemical. In a few lines: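 Baculovirus-expressed enzyme (1.2 ng) was preincubated with compound in HEPES pH 7.0/MgCl2/DTT buffer, 2 min shaking then 13 min at room temperature. Biotin-EDPDYEWPSA-NH2 (0.4 μM final) and ATP (27 μM final) were added for 40 min at room temperature. EDTA stop, streptavidin-XL/PT66-K TR-FRET at 615/665 nm gave IC50.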

A further test has as its system THP-1 cells. Description: TNFα generation assay. The conditions noted are these: Homo sapiens. The format is cell-based, human. Put shortly: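 Secreted TNFα in supernatant quantified by ELISA or AlphaLISA after 7 h culture on human IgG-coated wells (10 μg/ml coating). Cells were IFN-γ-differentiated THP-1 (10 ng/ml, 2 days), exposed to compound for 30 min at room temperature before plating.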

[2] abbreviates: Syk enzyme assay, Test Example 1, read-out: IC50 of Syk-inhibitory activity.
The mark [3] stands for this setting: THP-1, THP-1 cells, Table 22, read-out: IC50 in TNFα generation assay.

Read-outs that look alike come from different tables or passages of the source.

On to `CCC[C@@H](Nc1nc(Nc2ccnc(-n3ccnn3)c2)c(C(N)=O)cc1F)[C@H](C)N` [Example 006-299, 2-((2-(1H-1,2,3-triazol-1-yl)pyridin-4-yl)amino)-6-(((2S,3R)-2-aminohexan-3-yl)amino)-5-fluoronicotinamide], for which the IC50 in test [1] (setting [2]) is < 10 nM; with THP-1 cells (setting [3]), < 65 nM.
Taken in the same sequence, the figures for `C[C@H](N)[C@@H](C)Nc1nc(Nc2ccc3c(cnn3C)c2)c(C(N)=O)cc1F` (racemic) [Example 006-109, 6-(((2R,3S)-3-aminobutan-2-yl)amino)-5-fluoro-2-((1-methyl-1H-indazol-5-yl)amino)nicotinamide 6-(((2S,3R)-3-aminobutan-2-yl)amino)-5-fluoro-2-((1-methyl-1H-indazol-5-yl)amino)nicotinamide] were < 10 nM and 65 to 130 nM.
Taken in the same sequence, the figures for `Cc1cnc2cc(Nc3nc(N[C@@H](CN)CC(C)C)c(F)cc3C(N)=O)ccc2n1` [Example 006-148, (R)-6-((1-amino-4-methylpentan-2-yl)amino)-5-fluoro-2-((2-methylquinoxalin-6-yl)amino)nicotinamide] were < 10 nM and 130 to 200 nM.
For `NC(=O)c1cc(F)c(NCC(N)C2CC2)nc1Nc1ccc2ncccc2c1` (stereo not shown) [Example 014-013, 6-((2-amino-2-cyclopropylethyl)amino)-5-fluoro-2-((quinolin-6-yl)amino)nicotinamide], the IC50 in test [1] (setting [2]) lay within 10 to 50 nM; in the test with THP-1 cells (setting [3]), 130 to 200 nM.
Taken in the same sequence, the figures for `Cc1cc(Nc2nc(N[C@@H]3CCCC[C@@H]3N)c(F)cc2C(N)=O)cnc1C1CC1` [Example 006-503, 6-(((1R,2S)-2-aminocyclohexyl)amino)-2-((6-cyclopropyl-5-methylpyridin-3-yl)amino)-5-fluoronicotinamide] were < 10 nM and 65 to 130 nM.
As for `CCOc1nn(CC)c2ccc(Nc3nc(N[C@H](CC)[C@H](C)N)c(F)cc3C(N)=O)cc12` [Example 006-593, 6-(((2S,3R)-2-aminopentan-3-yl)amino)-2-((3-ethoxy-1-ethyl-1H-indazol-5-yl)amino)-5-fluoronicotinamide], the IC50 in test [1] (setting [2]) is < 10 nM; in the test with THP-1 cells (setting [3]) it was 65 to 130 nM.
For `COCc1cc(Nc2nc(N[C@@H]3CCCC[C@@H]3N)c(F)cc2C(N)=O)ccn1` (relative stereo) [Example 004-191, 6-(cis-2-aminocyclohexylamino)-5-fluoro-2-((2-(methoxymethyl)pyridin-4-yl)amino)nicotinamide] the same measures were 10 to 50 nM and 65 to 130 nM.
For the compound `C[C@H](N)CNc1nc(Nc2ccc3ncccc3c2)c(C(N)=O)cc1F` [Example 13, 6-((2S)-2-aminopropylamino)-5-fluoro-2-(quinolin-6-ylamino)nicotinamide], the IC50 in test [1] (read-out: Syk-inhibitory activity (IC50)) was ≤ 1000 nM; with THP-1 cells (THP-1, 7 h, IFN-γ-differentiated THP-1 cells on human IgG-coated plate, cultured 7 hours, read-out: TNFα generation inhibitory activity (IC50)) it was ≤ 200 nM.
`NC(=O)c1cc(F)c(NC2CCCCC2N)nc1Nc1cnnc(-c2ccccc2)c1` (stereo not shown) [Example 002-169]: the IC50 lay within 10 to 50 nM in test [1] (setting [2]) and 130 to 200 nM with THP-1 cells (setting [3]).
Taken in the same sequence, the figures for `COc1nn(C)c2ccc(Nc3nc(N[C@H](CC4CC4)[C@H](C)N)c(F)cc3C(N)=O)cc12` [Example 006-586, 6-(((2R,3S)-3-amino-1-cyclopropylbutan-2-yl)amino)-5-fluoro-2-((3-methoxy-1-methyl-1H-indazol-5-yl)amino)nicotinamide] were < 10 nM and 65 to 130 nM.
For `CNc1ccc(Nc2nc(NC3CCCCC3N)c(F)cc2C(N)=O)cn1` (stereo not shown) [Example 002-073] the same measures were 10 to 50 nM and 130 to 200 nM.
For `C[C@H](N)[C@@H](CC1CC1)Nc1nc(Nc2cncc(C3CC3)c2)c(C(N)=O)cc1F` [Example 006-350, 6-(((2R,3S)-3-amino-1-cyclopropylbutan-2-yl)amino)-2-((5-cyclopropylpyridin-3-yl)amino)-5-fluoronicotinamide] the same measures were < 10 nM and 65 to 130 nM.
As to `C[C@H](N)[C@@H](C)Nc1nc(Nc2cccc(-n3ccnn3)c2)c(C(N)=O)cc1F` (racemic) [Example 006-121, 2-((3-(1H-1,2,3-triazol-1-yl)phenyl)amino)-6-(((2R,3S)-3-aminobutan-2-yl)amino)-5-fluoronicotinamide 2-((3-(1H-1,2,3-triazol-1-yl)phenyl)amino)-6-(((2S,3R)-3-aminobutan-2-yl)amino)-5-fluoronicotinamide], the values for the IC50 (in test [1] (setting [2]); in the test on THP-1 cells (setting [3])) were < 10 nM and 130 to 200 nM, respectively.
Taken in the same sequence, the figures for `NC(=O)c1cc(F)c(N[C@@H]2CCCC[C@@H]2N)nc1Nc1cccnc1` (relative stereo) [Example 004-096, 6-(cis-2-aminocyclohexylamino)-5-fluoro-2-((pyridin-3-yl)amino)nicotinamide] were 10 to 50 nM and 65 to 130 nM.
For `Cc1cc(Nc2nc(N[C@H](c3ccc(F)cc3)[C@H](C)N)c(F)cc2C(N)=O)cnc1C` [Example 006-558, 6-(((1R,2S)-2-amino-1-(4-fluorophenyl)propyl)amino)-2-((5,6-dimethylpyridin-3-yl)amino)-5-fluoronicotinamide] the same measures were < 10 nM and 65 to 130 nM.
For `CCC[C@@H](Nc1nc(Nc2cnc3cc(OC)ccc3c2)c(C(N)=O)cc1F)[C@H](C)N` [Example 006-204, 6-(((2S,3R)-2-aminohexan-3-yl)amino)-5-fluoro-2-((7-methoxyquinolin-3-yl)amino)nicotinamide] the same measures were < 10 nM and 65 to 130 nM.
Consider `CCn1ncc2c(Nc3nc(N[C@H](C4CC4)[C@H](C)N)c(F)cc3C(N)=O)cccc21` [Example 006-576, 6-(((1R,2S)-2-amino-1-cyclopropylpropyl)amino)-2-((1-ethyl-1H-indazol-4-yl)amino)-5-fluoronicotinamide], for which the IC50 in test [1] (setting [2]) was < 10 nM; in the test on THP-1 cells (setting [3]), < 65 nM.
Take `C[C@H](N)[C@H](Nc1nc(Nc2ccc(N3CCOCC3)nc2)c(C(N)=O)cc1F)C1CC1` [Example 006-515, 6-(((1R,2S)-2-amino-1-cyclopropylpropyl)amino)-5-fluoro-2-((6-morpholinopyridin-3-yl)amino)nicotinamide]: the values for the IC50 (in test [1] (setting [2]); in the test on THP-1 cells (setting [3])) were < 10 nM and 130 to 200 nM, respectively.
For `CC[C@@H](Nc1nc(Nc2ccc3c(c2)c(C(C)C)nn3C)c(C(N)=O)cc1F)[C@H](C)N` [Example 006-543, 6-(((2S,3R)-2-aminopentan-3-yl)amino)-5-fluoro-2-((3-isopropyl-1-methyl-1H-indazol-5-yl)amino)nicotinamide] the same measures were < 10 nM and 65 to 130 nM.
For `CC[C@@H](Nc1nc(Nc2ccc3c(c2)c(N2CCOCC2)nn3C)c(C(N)=O)cc1F)[C@H](C)N` [Example 006-563, 6-(((2S,3R)-2-aminopentan-3-yl)amino)-5-fluoro-2-((1-methyl-3-morpholino-1H-indazol-5-yl)amino)nicotinamide] the same measures were < 10 nM and 130 to 200 nM.
In the case of `Cc1ncc(Nc2nc(NC3CCCCC3N)c(F)cc2C(N)=O)cc1-c1ccoc1` (stereo not shown) [Example 002-117], the IC50 is < 10 nM in test [1] (setting [2]) and 65 to 130 nM in the test on THP-1 cells (setting [3]).
For `CC[C@@H](Nc1nc(Nc2cnc3ccc(OC)cc3c2)c(C(N)=O)cc1F)[C@H](C)N` [Example 006-264, 6-(((2S,3R)-2-aminopentan-3-yl)amino)-5-fluoro-2-((6-methoxyquinolin-3-yl)amino)nicotinamide] the same measures were < 10 nM and < 65 nM.
For `NC(=O)c1cc(F)c(NC2CCCCC2N)nc1Nc1ccnc(N2CCCC2=O)c1` (stereo not shown) [Example 002-054] the same measures were 10 to 50 nM and 65 to 130 nM.
In the case of `COc1cc(Nc2nc(NCCN)c(F)cc2C(N)=O)cc(OC)c1` [Example 008-001], the IC50 in test [1] (setting [2]) fell in the range of 10 to 50 nM; with THP-1 cells (setting [3]) it was 65 to 130 nM.
For `C[C@H](N)[C@H](Nc1nc(Nc2cncc(-n3cccn3)c2)c(C(N)=O)cc1F)C1CC1` [Example 006-373, 2-((5-(1H-pyrazol-1-yl)pyridin-3-yl)amino)-6-(((1R,2S)-2-amino-1-cyclopropylpropyl)amino)-5-fluoronicotinamide] the same measures were < 10 nM and < 65 nM.
Taken in the same sequence, the figures for `CCc1nn(CC)c2ccc(Nc3nc(N[C@H](C4CC4)[C@H](C)N)c(F)cc3C(N)=O)cc12` [Example 006-579, 6-(((1R,2S)-2-amino-1-cyclopropylpropyl)amino)-2-((1,3-diethyl-1H-indazol-5-yl)amino)-5-fluoronicotinamide] were < 10 nM and 65 to 130 nM.
Consider `CCC[C@@H](Nc1nc(Nc2cncc(-c3ccc(OC)cc3F)c2)c(C(N)=O)cc1F)[C@H](C)N` [Example 006-287, 6-(((2S,3R)-2-aminohexan-3-yl)amino)-5-fluoro-2-((5-(2-fluoro-4-methoxyphenyl)pyridin-3-yl)amino)nicotinamide], for which the IC50 was < 10 nM in test [1] (setting [2]) and 65 to 130 nM with THP-1 cells (setting [3]).
Taken in the same sequence, the figures for `COc1cc(Nc2nc(N[C@@H](CN)CC(C)C)c(F)cc2C(N)=O)cc(OC)n1` [Example 006-156, (R)-6-((1-amino-4-methylpentan-2-yl)amino)-2-((2,6-dimethoxypyridin-4-yl)amino)-5-fluoronicotinamide] were < 10 nM and 130 to 200 nM.
For `CC(C)C[C@H](CN)Nc1nc(Nc2ccc3c(cnn3C)c2)c(C(N)=O)cc1F` [Example 006-142, (R)-6-((1-amino-4-methylpentan-2-yl)amino)-5-fluoro-2-((1-methyl-1H-indazol-5-yl)amino)nicotinamide], the IC50 was < 10 nM in test [1] (setting [2]) and < 65 nM in the test on THP-1 cells (setting [3]).
